Data on 23 molecules can be found in patent publication US20210300900A1, “OGA INHIBITOR COMPOUNDS” (Janssen Pharmaceutica NV, priority 2018, published 2021).

Test [1] addresses T1, OGA (Homo sapiens, UniProt O60502).
T1 construct: endogenous in cells; host or cells: HEK293 cells inducible for P301L mutant human Tau (isoform 2N4R)
T1 sequence (O60502 1-916): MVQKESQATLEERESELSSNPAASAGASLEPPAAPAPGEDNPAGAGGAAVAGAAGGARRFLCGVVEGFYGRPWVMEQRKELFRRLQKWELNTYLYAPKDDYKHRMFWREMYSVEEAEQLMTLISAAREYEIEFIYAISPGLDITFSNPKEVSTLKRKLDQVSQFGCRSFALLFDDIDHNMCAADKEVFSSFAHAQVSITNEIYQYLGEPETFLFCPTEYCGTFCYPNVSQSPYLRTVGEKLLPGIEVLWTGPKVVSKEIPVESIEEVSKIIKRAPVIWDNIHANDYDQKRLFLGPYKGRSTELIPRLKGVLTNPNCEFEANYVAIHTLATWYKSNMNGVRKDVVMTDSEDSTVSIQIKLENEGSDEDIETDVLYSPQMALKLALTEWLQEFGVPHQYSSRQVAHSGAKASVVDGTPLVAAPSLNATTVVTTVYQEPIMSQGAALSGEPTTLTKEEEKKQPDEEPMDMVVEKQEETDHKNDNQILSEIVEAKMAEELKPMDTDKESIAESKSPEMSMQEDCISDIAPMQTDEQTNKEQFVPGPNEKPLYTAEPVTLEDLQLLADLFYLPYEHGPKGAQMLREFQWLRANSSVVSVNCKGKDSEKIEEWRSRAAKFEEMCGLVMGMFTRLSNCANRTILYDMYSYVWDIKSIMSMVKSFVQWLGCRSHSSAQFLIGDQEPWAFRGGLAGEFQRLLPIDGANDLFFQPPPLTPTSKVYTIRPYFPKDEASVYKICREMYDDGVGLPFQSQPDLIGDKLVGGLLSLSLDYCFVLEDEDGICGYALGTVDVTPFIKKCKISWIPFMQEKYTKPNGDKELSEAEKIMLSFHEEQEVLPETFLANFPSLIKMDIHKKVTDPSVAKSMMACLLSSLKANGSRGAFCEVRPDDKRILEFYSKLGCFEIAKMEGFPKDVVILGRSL
The experiment in a line: OGA cellular assay (ICC detection of O-GlcNAcylated proteins in HEK293 cells inducible for P301L mutant human Tau). The test is classed as cell-based. The note with it: 6 hours incubation; for Emax: HEK293, HEK293 cells inducible for P301L mutant human Tau; for Emax / Cellular Emax (%): maximum = Thiamet G 200 uM; for EC50 / Cellular hOGA; pEC50 / Cellular Emax (%): HEK293 cells inducible for P301L mutant human Tau; for EC50: read-out: Cellular hOGA, pEC50 (converted). As for the experimental part:
HEK293 cells inducible for P301L mutant human Tau (isoform 2N4R) were established at Janssen. Thiamet-G was used for both plate validation (high control) and as reference compound (reference EC50 assay validation). OGA inhibition is evaluated through the immunocytochemical (ICC) detection of O-GlcNAcylated proteins by the use of a monoclonal antibody (CTD110.6; Cell Signaling, #9875) detecting O-GlcNAcylated residues as previously described (Dorfmueller et al. 2010 Chemistry & biology, 17:1250). Inhibition of OGA will result in an increase of O-GlcNAcylated protein levels resulting in an increased signal in the experiment. Cell nuclei are stained with Hoechst to give a cell culture quality control and a rough estimate of immediate compounds toxicity, if any. ICC pictures are imaged with a Perkin Elmer Opera Phenix plate microscope and quantified with the provided software Perkin Elmer Harmony 4.1.
Cells were propagated in DMEM high Glucose (Sigma, #D5796) following standard procedures. 2 days before the cell assay cells are split, counted and seeded in Poly-D-Lysine (PDL) coated 96-wells (Greiner, #655946) plate at a cell density of 12,000 cells per cm^2 (4,000 cells per well) in 100 μl of Assay Medium (Low Glucose medium is used to reduce basal levels of GlcNAcylation) (Park et al. 2014 The Journal of biological chemistry 289:13519). At the day of compound test medium from assay plates was removed and replenished with 90 μl of fresh Assay Medium. 10 μl of compounds at a 10 fold final concentration were added to the wells. Plates were centrifuged shortly before incubation in the cell incubator for 6 hours. DMSO concentration was set to 0.2%. Medium is discarded by applying vacuum. For staining of cells medium was removed and cells washed once with 100 μl D-PBS (Sigma, #D8537). From next step onwards unless other stated assay volume was always 50 μl and incubation was performed without agitation and at room temperature. Cells were fixed in 50 μl of a 4% paraformaldehyde (PFA, Alpha aesar, #043368) PBS solution for 15 minutes at room temperature. […] Before analysis samples were washed 2 times manually for 5 minutes in ICC base buffer.
Imaging is performed using Perkin Elmer Phenix Opera using a water 20×objective and recording 9 fields per well. Intensity readout at 488 nm is used as a measure of O-GlcNAcylation level of total proteins in wells. To assess potential toxicity of compounds nuclei were counted using the Hoechst staining. IC50-values are calculated using parametric non-linear regression model fitting. As a maximum inhibition Thiamet G at a 200 uM concentration is present on each plate. In addition, a concentration response of Thiamet G is calculated on each plate.

In test [2] the target is T2, recombinant human Meningioma Expressed Antigen 5 (MGEA5), also referred to as O-GcNAcase (OGA) (Homo sapiens, UniProt O60502).
T2 construct: Full length OGA enzyme was purchased at OnGene (cat #TP322411); purchased OnGene (so in the source)
T2 sequence (O60502 1-916): T1 sequence (O60502 1-916)
Description: OGA biochemical assay (inhibition of FM-GlcNAc hydrolysis, fluorescence). The note with it: FM-GlcNAc substrate; for Emax: read-out: Enzymatic Emax (%); for IC50: read-out: Enzymatic hOGA, pIC50 (converted). Put shortly:
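Full-length recombinant human OGA (2 nM) pre-incubated 60 min with compound, then FM-GlcNAc (100 uM final) added in 200 mM citrate/phosphate pH 7.2 with 0.005% Tween-20; 6 h at room temperature, stopped with pH 11.0 carbonate. Fluorescein read at ex 485/em 538 nm; IC50 and Hill coefficient from curve fit against no-inhibitor and saturating-standard controls.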

Structures are written as SMILES. Where only a bound is given, the exact number is not on record here.

Regarding `CCOc1cncc(C(C)N2CCC[C@H](Cc3cc(C)nc(C)c3)C2)c1` (mixture of isomers) [Product 44], in test [1], the Emax (usually the size of the effect at its maximum, as opposed to the concentration needed) worked out at 41% and the EC50 was above 1000 nM. In addition, in test [2], the Emax was 100% and the IC50 was 26.9 nM.

As to `CC(=O)Nc1cc(C(C)N2CCC[C@H](Cc3cc(C)nc(C(F)(F)F)c3)C2)n[nH]1` (mixture of isomers) [Product 70], in test [1], the Emax was 57% and the EC50 is 525 nM. Besides, in test [2], the Emax amounted to 101% and the IC50 is 52.5 nM.

For the molecule `COc1cc(C[C@H]2CCCN(C(C)c3nc(OC)ccc3F)C2)cc(C(F)(F)F)n1` (mixture of isomers) [Product 79], in test [1], the Emax came out at 8% and the EC50 is above 1000 nM. In test [2], the Emax worked out at 104% and the IC50 is 43.7 nM.

With `COc1cc(NC[C@H]2CCCN(C(C)c3nc(OC)ccc3F)C2)cc(C)n1` (mixture of isomers) [Product 90], in test [1], the Emax was 79% and the EC50 was 117 nM. Also, in test [2], the maximal effect (Emax) amounted to 102% and the IC50 was 12.3 nM.

As to `COc1ccc(F)c(C(C)N2CC[C@H](Cc3cc(C)nc(C)c3)C2)n1` (mixture of isomers) [Product 100], in test [1], the Emax came out at 10% and the EC50 was above 1000 nM. For the same molecule, in test [2], the Emax turned out to be 97% and the IC50 was 912 nM.

Consider `CC(=O)Nc1cc(C(C)N2CC[C@H](Cc3cc(C)nc(C(F)(F)F)c3)C2)n[nH]1` (mixture of isomers) [Product 122], for which, in test [1], the Emax is 17% and the EC50 is above 1000 nM. In test [2], the maximal effect (Emax) came to 92% and the IC50 is 1000 nM.

Consider `COc1cc(C(C)N2CC[C@H](Cc3cc(C)nc(OC)c3)C2)c(F)cn1` (mixture of isomers) [Product 130], for which, in test [1], the Emax amounted to 4% and the EC50 was above 1000 nM. Moreover, in test [2], the Emax came to 95% and the IC50 was 871 nM.

Regarding `CC(=O)Nc1ccc(C(C)N2CCC[C@H](Cc3cc(C)nc(C)c3)C2)s1` (mixture of isomers) [Product 134], in test [1], the Emax was 59% and the EC50 was 240 nM. In test [2], the Emax was 101% and the IC50 is 4.68 nM.

Regarding `CC(=O)Nc1nc(C(C)N2CCC[C@H](Cc3cc(C)nc(C)c3)C2)c[nH]1` (mixture of isomers) [Product 136], in test [1], the maximal response (Emax) amounted to 12% and the EC50 is above 1000 nM. Further, in test [2], the Emax was 102% and the IC50 was 110 nM.

For `CC(=O)Nc1cc(C(C)N2CCC[C@H](Cc3cc(C)nc(C)c3)C2)n[nH]1` (stereo in doubt) [Product 3], in test [1], the Emax was 84% and the EC50 is 47.9 nM. In test [2], the Emax was determined as 102% and the IC50 is 2.57 nM.

Turning to `CC(=O)Nc1cc(CN2CCC[C@H](Cc3cc(C)nc(C)c3)C2)n[nH]1` [Product 1], in test [1], the Emax was 56% and the EC50 is 692 nM. For the same molecule, in test [2], the Emax stood at 101% and the IC50 was 21.4 nM.

For `CC(=O)Nc1cc([C@H](C)N2CCC[C@H](Cc3cc(C)nc(C)c3)C2)n[nH]1` [Product 5], in test [1], the “Cellular hOGA; pEC50” value came to 7.44 and the “Cellular Emax (%)” value came to 80%. Moreover, in test [2], the “Enzymatic Emax (%)” value is recorded as 104% and the “Enzymatic hOGA; pIC50” value came out at 8.91.

Take `CC(=O)Nc1cc(CN2CCC[C@H](Cc3cc(C)nc(C)c3)C2)nn1C` [Product 6]: in test [1], the Emax came to 11% and the EC50 is above 1000 nM. Moreover, in test [2], the Emax stood at 100% and the IC50 was 174 nM.

On to `CCOc1cc([C@H](C)N2CCC[C@H](Cc3cc(C)nc(C)c3)C2)n[nH]1` [Product 16], for which, in test [1], the “Cellular hOGA; pEC50” value is on record as 6.05 and the “Cellular Emax (%)” value worked out at 31%. Moreover, in test [2], the “Enzymatic Emax (%)” value turned out to be 101% and the “Enzymatic hOGA; pIC50” value came out at 7.45.

`COCc1cc(C(C)N2CCC[C@H](Cc3cc(C)nc(C)c3)C2)n[nH]1` (some centres unmarked) [Product 19]: in test [1], the Emax worked out at 42% and the EC50 was above 1000 nM. Also, in test [2], the Emax came to 101% and the IC50 was 43.7 nM.

Regarding `Cc1cc(C[C@H]2CCCN(Cc3cc(C4CC4)[nH]n3)C2)cc(C)n1` [Product 20], in test [1], the Emax was determined as 11% and the EC50 was above 1000 nM. Further, in test [2], the Emax was 96% and the IC50 was 851 nM.

Take `CCOc1nc(CN2CCC[C@H](Cc3cc(C)nc(C)c3)C2)c[nH]1` [Product 23]: in test [1], the Emax came out at 70% and the EC50 was 427 nM. In test [2], the maximal response (Emax) stood at 102% and the IC50 is 60.3 nM.

With `CC(=O)Nc1ccc(CN2CCC[C@H](Cc3cc(C)nc(C)c3)C2)s1` [Product 28], in test [1], the Emax came to 75% and the EC50 was 309 nM. For the same molecule, in test [2], the Emax was 100% and the IC50 was 19.1 nM.

Consider `CC(=O)Nc1cncc(CN2CCC[C@H](Cc3cc(C)nc(C)c3)C2)c1` [Product 34], for which, in test [1], the Emax turned out to be 4% and the EC50 is above 1000 nM. Also, in test [2], the Emax is 91% and the IC50 was 490 nM.

For the molecule `COc1ccc(F)c([C@H](C)N2CCC[C@H](Cc3cc(C)nc(C)c3)C2)n1` [Product 42], in test [1], the “Cellular hOGA; pEC50” value is listed as 7.03 and the “Cellular Emax (%)” value turned out to be 100%. In test [2], the “Enzymatic Emax (%)” value worked out at 103% and the “Enzymatic hOGA; pIC50” value is recorded as 7.88.

`COc1cccc([C@H](C)N2CCC[C@H](Cc3cc(C)nc(C)c3)C2)n1` [Product 47]: in test [1], the “Cellular hOGA; pEC50” value is listed as 6.29 and the “Cellular Emax (%)” value came to 67%. Moreover, in test [2], the “Enzymatic Emax (%)” value is on record as 102% and the “Enzymatic hOGA; pIC50” value turned out to be 7.28.

With `CC(=O)Nc1cnc(CN2CCC[C@H](Cc3cc(C)nc(C)c3)C2)cn1` [Product 63], in test [1], the Emax was found to be 25% and the EC50 is above 1000 nM. For the same molecule, in test [2], the Emax turned out to be 93% and the IC50 is 1200 nM.

As for `COc1cc(C[C@H]2CCCN(C(C)c3cc(NC(C)=O)[nH]n3)C2)cc(C)n1` (some centres unmarked) [Product 66], in test [1], the Emax amounted to 83% and the EC50 is 200 nM. Also, in test [2], the Emax came to 102% and the IC50 was 18.6 nM.
